We go through twelve molecules from patent publication US8642601B2, “Inhibitors of JNK” (Roche Palo Alto LLC, priority 2010, dated 2014).

In data set [1] the test system is T1, JNK.
T1 construct: Human JNK2α2 assay contains 1 nM enzyme; Human JNK1α1 assay contains 2 nM enzyme
Kind of data set: JNK Assay in vitro (phosphorylation of GST-ATF2 (19-96) with [γ-33P] ATP). Type of data set: biochemical. Conditions: JNK isoform not stated for Table 1 (method describes human JNK1α1, JNK2α2, JNK3); Km concentrations of ATP and substrate. The protocol:
JNK activity was measured by phosphorylation of GST-ATF2 (19-96) with [γ-^33P] ATP. The enzyme reaction was conducted at Km concentrations of ATP and the substrate at final volume of 40 μl in buffer containing 25 mM HEPES, pH 7.5, 2 mM dithiothreitol, 150 mM NaCl, 20 mM MgCl2, 0.001% Tween® 20, 0.1% BSA and 10% DMSO. Human JNK2α2 assay contains 1 nM enzyme, 1 μM ATF2, 8 μM ATP with 1 uCi [γ-^33P] ATP. Human JNK1α1 assay contains 2 nM enzyme, 1 μM ATF2, 6 μM ATP with 1 μCi [γ-^33P] ATP. Human JNK3 (Upstate Biotech #14-501M) assay contains 2 nM enzyme, 1 μM ATF2, 4 μM ATP with 1 μCi [γ-^33P] ATP. The enzyme assay was carried out in the presence or absence of several compound concentrations. JNK and compound were pre-incubated for 10 min., followed by initiation of the enzymatic reaction by adding ATP and the substrate. The reaction mixture was incubated at 30° C. for 30 min. At the end of incubation, the reaction was terminated by transferring 25 μl of the reaction mixture to 150 μl of 10% glutathione Sepharose® slurry (Amersham #27-4574-01) containing 135 mM EDTA. The reaction product was captured on the affinity resin, and washed on a filtration plate (Millipore, MABVNOB50) with phosphate buffered saline for six times to remove free radionucleotide. The incorporation of ^33P into ATF2 was quantified on a microplate scintillation counter (Packard Topcount). Compound inhibition potency on JNK was measured by IC50 value generated from ten concentration inhibition curves fitted into the 3-parameter model: % inhibition=Maximum/(1+(IC50/[Inhibitor])^slope). Data were analyzed on Microsoft Excel for parameter estimation.

Where a name gives a salt, the structure may show the parent alone.

As for `CCOC1CC2CCC(C1)N2C(=O)[C@H]1CC[C@H](Nc2nccc(-n3ccc4c(OCCCS(C)(=O)=O)cccc43)n2)CC1` (stereo partly shown) (as salt: salt) [Compound 26, (3-Ethoxy-8-aza-bicyclo[3.2.1]oct-8-yl)-(4-{4-[4-(3-methanesulfonyl-propoxy)-indol-1-yl]-pyrimidin-2-ylamino}-cyclohexyl)-methanone; compound with formic acid], the melting point was 125 to 130 °C.
For the molecule `CCCN1CCC[C@H](NC(=O)[C@H]2CC[C@H](Nc3nccc(-n4ccc5c(OCCCS(C)(=O)=O)cccc54)n3)CC2)C1` (stereo in doubt) (as salt: HCl) [Compound 14, 4-{4-[4-(3-Methanesulfonyl-propoxy)-indol-1-yl]-pyrimidin-2-ylamino}-cyclohexanecarboxylic acid ((R)-1-propyl-piperidin-3-yl)-amide], the melting point was 185 to 190 °C.
Molecule `CCOC(=O)CC1CCN(C(=O)[C@H]2CC[C@H](Nc3nccc(-n4ccc5c(OCCCS(C)(=O)=O)cccc54)n3)CC2)CC1` [Compound 1, [1-(4-{4-[4-(3-Methanesulfonyl-propoxy)-indol-1-yl]-pyrimidin-2-ylamino}-cyclohexanecarbonyl)-piperidin-4-yl]-acetic acid ethyl ester] returned a melting point of 175 to 177 °C. Besides, inhibition in data set [1] was half-maximal at 550 nM (IC50).
`CS(=O)(=O)CCCOc1cccc2c1ccn2-c1ccnc(N[C@H]2CC[C@H](C(=O)N3CCC[C@H](C(=O)O)C3)CC2)n1` [Compound 4, (S)-1-(4-{4-[4-(3-Methanesulfonyl-propoxy)-indol-1-yl]-pyrimidin-2-ylamino}-cyclohexanecarbonyl)-piperidine-3-carboxylic acid] returned a melting point of 270 to 276 °C. The IC50 in data set [1] was found to be 107 nM.
Taken in the same sequence, the figures for `CS(=O)(=O)CCCOc1cccc2c1ccn2-c1ccnc(N[C@H]2CC[C@H](C(=O)N3CCC(C(N)=O)CC3)CC2)n1` [Compound 5, 1-(4-{4-[4-(3-Methanesulfonyl-propoxy)-indol-1-yl]-pyrimidin-2-ylamino}-cyclohexanecarbonyl)-piperidine-4-carboxylic acid amide] were 219 to 221 °C and 91.7 nM.
Taken in the same sequence, the figures for `CC(C)(O)C1CCN(C(=O)[C@H]2CC[C@H](Nc3nccc(-n4ccc5c(OCCCS(C)(=O)=O)cccc54)n3)CC2)CC1` [Compound 6, [4-(1-Hydroxy-1-methyl-ethyl)-piperidin-1-yl]-(4-{4-[4-(3-methanesulfonyl-propoxy)-indol-1-yl]-pyrimidin-2-ylamino}-cyclohexyl)-methanone] were 196 to 198 °C and 86 nM.
The corresponding values for `CCOC(=O)C1CCN(C(=O)[C@H]2CC[C@H](Nc3nccc(-n4ccc5c(OCC6CCS(=O)(=O)C6)cccc54)n3)CC2)CC1` (stereo partly shown) [Compound 7, 1-(4-{4-[4-(1,1-Dioxo-tetrahydro-1λ^6-thiophen-3-ylmethoxy)-indol-1-yl]-pyrimidin-2-ylamino}-cyclohexanecarbonyl)-piperidine-4-carboxylic acid ethyl ester] are 209 to 211 °C and 51.4 nM.
Regarding `O=C(O)C1CCN(C(=O)[C@H]2CC[C@H](Nc3nccc(-n4ccc5c(OCC6CCS(=O)(=O)C6)cccc54)n3)CC2)CC1` (stereo partly shown) [Compound 8, 1-(4-{4-[4-(1,1-Dioxo-tetrahydro-1λ^6-thiophen-3-ylmethoxy)-indol-1-yl]-pyrimidin-2-ylamino}-cyclohexanecarbonyl)-piperidine-4-carboxylic acid], the melting point fell in the range of 172 to 174 °C. Moreover, the IC50 in data set [1] worked out at 70.8 nM.
The corresponding values for `CCOC(=O)C1(C)CCN(C(=O)[C@H]2CC[C@H](Nc3nccc(-n4ccc5c(OCCCS(C)(=O)=O)cccc54)n3)CC2)CC1` [Compound 10, 1-(4-{4-[4-(3-Methanesulfonyl-propoxy)-indol-1-yl]-pyrimidin-2-ylamino}-cyclohexanecarbonyl)-4-methyl-piperidine-4-carboxylic acid ethyl ester] are 171 to 173 °C and 58.4 nM.
`CCN1CC[C@@H](NC(=O)[C@H]2CC[C@H](Nc3nccc(-n4ccc5c(OCCCS(C)(=O)=O)cccc54)n3)CC2)C1` [Compound 12, 4-{4-[4-(3-Methanesulfonyl-propoxy)-indol-1-yl]-pyrimidin-2-ylamino}-cyclohexanecarboxylic acid ((R)-1-ethyl-pyrrolidin-3-yl)-amide]: the melting point is 229 to 231 °C. In addition, the IC50 in data set [1] was 93.8 nM.
Taken in the same sequence, the figures for `CCCN1CCC[C@@H](NC(=O)[C@H]2CC[C@H](Nc3nccc(-n4ccc5c(OCCCS(C)(=O)=O)cccc54)n3)CC2)C1` [Compound 16, 4-{4-[4-(3-Methanesuflonyl-propoxy)-indol-1-yl]-pyrimidin-2-ylamino}-cyclohexanecarboxylic acid ((S)-1-propyl-piperidin-3-yl)-amide] were 185 to 190 °C and 163 nM.
Taken in the same sequence, the figures for `CC1(C(=O)O)CCN(C(=O)[C@H]2CC[C@H](Nc3nccc(-n4ccc5c(OCCCS(C)(=O)=O)cccc54)n3)CC2)CC1` [Compound 18, 1-(4-{4-[4-(3-Methanesulfonyl-propoxy)-indol-1-yl]-pyrimidin-2-ylamino}-cyclohexanecarbonyl)-4-methyl-piperidine-4-carboxylic acid] were 174 °C and 153 nM.
